From patent US8354436B2 (4SC Discovery GmbH, priority 2011, dated 2013)
Read-outs that look alike come from different tables or passages of the source.

Experiments:
Format in all cases: cell-based
[1] = system: PBMC from healthy human donors; assay: T cell proliferation assay (PHA-stimulated human PBMC, BrdU ELISA); conditions: 48 hours
Method in brief: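 Proliferation was quantified by BrdU ELISA 48 hours after starting culture of 1×10⁵ human PBMC per well with test compound and 2 μg/ml phytohaemagglutinin. Cells came from healthy donors via Ficoll separation and were kept in RPMI1640 with 10% dialysed heat-inactivated FCS.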

[2] = system: IL-17FF; assay: IL-17FF production by PHA-stimulated human PBMC (human IL-17F ELI-Pair)
Method in brief: (§1)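 Compounds tested on PHA (2 μg/ml)-stimulated human PBMC, 1×10^5 cells/well, 48 h, at 10, 1, 0.1 and 0.01 μM or semilog titration for IC50. Cytokines in culture supernatant: IL-17AA/AF by Luminex BioPlex; IL-17AA, IL-17FF, IFN-γ by separate ELISAs.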

[3] = system: IFN-γ; assay: IFN-γ production by PHA-stimulated human PBMC (OptEIA human IFN-g ELISA)
Method in brief: as §1

[4] = PHA-stimulated human PBMC, column D, read-out: IC50 (Tcell proliferation)
[5] = PHA-stimulated human PBMC, 48 hours, column B, read-out: IC50 (IL-17FF)
[6] = PHA-stimulated human PBMC, 48 hours, column C, read-out: IC50 (IFNγ)
[7] = human PBMC, 2 μg/ml PHA, read-out: D: IC50 (Tcell proliferation)
[8] = human PBMC, 2 μg/ml PHA, 48 hours, read-out: B: IC50 (IL-17FF)
[9] = human PBMC, 2 μg/ml PHA, 48 hours, read-out: C: IC50 (IFNγ)

SMILES	IC50 [1, 4]	IC50 ([2]; Homo sapiens, PBMC, 48 h, read-out: IC50 (IL-17FF))	IC50 ([3]; Homo sapiens, PBMC, 48 h, read-out: IC50 (IFNγ))	IC50 [2, 5]	IC50 [3, 6]	IC50 [1, 7]	IC50 [2, 8]	IC50 [3, 9]
CCOC(=O)c1c(-c2c(F)cccc2Cl)noc1-c1cnn(-c2ccccc2Cl)c1C(F)(F)F [IB-33, ethyl 3-(2-chloro-6-fluorophenyl)-5-(1-(2-chlorophenyl)-5-(trifluoromethyl)-1H-pyrazol-4-yl)isoxazole-4-carboxylate]	100 to 1000 nM	100 to 1000 nM	100 to 1000 nM	–	–	–	–	–
N#Cc1c(-c2c(F)cccc2Cl)noc1-c1cnn(-c2cccc(Cl)c2)c1C(F)(F)F [Example I-49, 3-(2-chloro-6-fluorophenyl)-5-(1-(3-chlorophenyl)-5-(trifluoromethyl)-1H-pyrazol-4-yl)isoxazole-4-carbonitrile]	100 to 1000 nM	–	–	100 to 1000 nM	100 to 1000 nM	–	–	–
COC(=O)c1c(-c2c(F)cccc2Cl)noc1-c1cnn(CC(F)(F)F)c1C(F)(F)F [Example I-65, methyl 3-(2-chloro-6-fluorophenyl)-5-(1-(2,2,2-trifluoroethyl)-5-(trifluoromethyl)-1H-pyrazol-4-yl)isoxazole-4-carboxylate]	10 to 100 nM	–	–	10 to 100 nM	10 to 100 nM	–	–	–
COCCn1ncc(-c2onc(-c3c(F)cccc3Cl)c2C(=O)OC)c1C(F)(F)F [Example I-102, methyl 3-(2-chloro-6-fluorophenyl)-5-(1-(2-methoxyethyl)-5-(trifluoromethyl)-1H-pyrazol-4-yl)isoxazole-4-carboxylate]	100 to 1000 nM	–	–	1000 to 10000 nM	1000 to 10000 nM	–	–	–
Fc1cccc(Cl)c1-c1noc(-c2cnn(-c3ccncc3)c2C(F)(F)F)c1-c1ccoc1 [Example B-24, 3-(2-chloro-6-fluorophenyl)-4-(furan-3-yl)-5-(1-(pyridin-4-yl)-5-(trifluoromethyl)-1H-pyrazol-4-yl)isoxazole]	–	–	–	–	–	10 to 100 nM	10 to 100 nM	10 to 100 nM
CCOC(=O)c1c(-c2c(F)cccc2Cl)noc1-c1cnn(-c2cccc(C#N)c2)c1C(F)(F)F [IB-32, ethyl 3-(2-chloro-6-fluorophenyl)-5-(1-(3-cyanophenyl)-5-(trifluoromethyl)-1H-pyrazol-4-yl)isoxazole-4-carboxylate]	10 to 100 nM	–	–	< 10 nM	< 10 nM	–	–	–
CON(C)C(=O)c1c(-c2ccccc2F)noc1-c1cnn(-c2cccc(F)c2)c1C(F)(F)F [Example I-94, 3-(2-fluorophenyl)-5-(1-(3-fluorophenyl)-5-(trifluoromethyl)-1H-pyrazol-4-yl)-N-methoxy-N-methylisoxazole-4-carboxamide]	1000 to 10000 nM	–	–	1000 to 10000 nM	1000 to 10000 nM	–	–	–
CC(C)OC(=O)c1c(-c2c(F)cccc2Cl)noc1-c1cnn(-c2ccccc2Cl)c1C(F)(F)F [IB-60]	1000 to 10000 nM	–	–	1000 to 10000 nM	1000 to 10000 nM	–	–	–
Fc1ccc(-n2ncc(-c3onc(-c4c(F)cccc4Cl)c3Br)c2C(F)(F)F)cc1 [IB-28, 4-bromo-3-(2-chloro-6-fluorophenyl)-5-(1-(4-fluorophenyl)-5-(trifluoromethyl)-1H-pyrazol-4-yl)isoxazole]	100 to 1000 nM	–	–	100 to 1000 nM	100 to 1000 nM	–	–	–
Fc1cccc(Cl)c1-c1noc(-c2cnn(-c3cccc(Cl)c3)c2C(F)(F)F)c1-c1ccco1 [Example B-6, 3-(2-chloro-6-fluorophenyl)-5-(1-(3-chlorophenyl)-5-(trifluoromethyl)-1H-pyrazol-4-yl)-4-(furan-2-yl)isoxazole]	–	–	–	–	–	< 10 nM	< 10 nM	< 10 nM
CCOC(=O)c1c(-c2onc(-c3c(F)cccc3Cl)c2C(=O)OC)cnn1-c1cccc(F)c1 [Example I-8, methyl 3-(2-chloro-6-fluorophenyl)-5-(5-(ethoxycarbonyl)-1-(3-fluorophenyl)-1H-pyrazol-4-yl)isoxazole-4-carboxylate]	100 to 1000 nM	–	–	100 to 1000 nM	100 to 1000 nM	–	–	–
O=C(c1c(-c2c(F)cccc2Cl)noc1-c1cnn(-c2cccc(Cl)c2)c1C(F)(F)F)N1CCCO1 [Example I-132, (3-(2-chloro-6-fluorophenyl)-5-(1-(3-chlorophenyl)-5-(trifluoromethyl)-1H-pyrazol-4-yl)isoxazol-4-yl)(isoxazolidin-2-yl)methanone]	10 to 100 nM	–	–	10 to 100 nM	< 10 nM	–	–	–
